In patent KR20170082372A, “Sirt6의 활성 조절용 조성물” (한국화학연구원, priority 2016, dated 2017):

Target: T1, recombinant Sirt6 enzyme (Homo sapiens, UniProt Q8N6T7)
T1 construct: purchased Cyclex CY-1156
Experiment: CycLex Sirt6 deacetylase fluorometric assay (cat. CY-1156)
Format: biochemical
Conditions: 1 h, room temperature; for EC50: increase of Sirt6 deacetylase activity; for activity at 5 µM (stock): screening at 5uM, no test sample control = 100

T1 sequence (Q8N6T7 whole entry): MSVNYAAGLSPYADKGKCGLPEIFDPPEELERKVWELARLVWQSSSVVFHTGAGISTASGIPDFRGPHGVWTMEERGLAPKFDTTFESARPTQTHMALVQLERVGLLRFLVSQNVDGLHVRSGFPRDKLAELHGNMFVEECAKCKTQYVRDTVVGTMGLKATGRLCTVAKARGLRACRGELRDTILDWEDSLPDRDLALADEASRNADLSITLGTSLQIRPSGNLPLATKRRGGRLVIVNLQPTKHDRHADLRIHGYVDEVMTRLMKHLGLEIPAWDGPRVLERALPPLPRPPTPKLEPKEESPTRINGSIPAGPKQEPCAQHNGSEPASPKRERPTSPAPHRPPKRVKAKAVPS

Row | EC50 | activity at 5 µM (stock) | SMILES
1 | 5 µM | ≥ 200% | NNc1nc2c(-c3cccc(C(F)(F)F)c3)nnn2c2ccccc12 [화학식 1, 5-hydrazinyl-3-(3-(trifluoromethyl)phenyl)-[1,2,3]triazolo[1,5-a]quinazoline]
2 | 2.8 µM | ≥ 200% | COc1ccc(-c2nnn3c2nc(NC(C)c2ccccc2)c2ccccc23)cc1 (stereo not shown) [화학식 2, 3-(4-methoxyphenyl)-N-(1-phenylethyl)-[1,2,3]triazolo[1,5-a]quinazolin-5-amine]
